Test results reported in PMC12610274, “Identification of Marrubiin as a Cathepsin C Inhibitor for Treating Rheumatoid Arthritis” (Molecules, 2025).

Legend:
[1] = system: TNF-α, IL-6, IL-1β, MCP-1, CXCL2 in RAW 264.7 cells; experiment: LPS-induced cytokine and chemokine secretion, ELISA; assay type: cell-based, mouse; conditions: LPS-stimulated RAW 264.7 cells, 24 h, concentration-dependent
Experimental: RAW264.7 cells in the logarithmic growth phase were counted and diluted to a concentration of 6 × 10^4 cells/mL. After thorough mixing, the cell suspension was seeded into 48-well plates and incubated in a humidified atmosphere containing 5% CO2 at 37 °C. Following 24 h of incubation, the culture medium was carefully aspirated, and the cells were gently washed with phosphate-buffered saline. […] After 1 h of pre-incubation, 30 μL of lipopolysaccharide (1 μg/mL) was added to each well except for the blank control group, which remained unstimulated. Following an additional 24 h incubation under identical conditions, the culture supernatants were collected to assess NO production using the Griess reagent assay. Concentrations of pro-inflammatory cytokines and chemokines were determined using commercially available ELISA kits according to the protocols.

CTSC [2] = biological target: T1, CTSC (Rattus norvegicus, UniProt P80067); experiment: AIA model, serum CTSC activity; assay type: in vivo, Sprague-Dawley rats; conditions: high dose 60 mg/kg gavage, 15 days
T1 construct: from tissue; host or cells: serum of Sprague-Dawley rats (AIA model)
T1 sequence (P80067 25-462): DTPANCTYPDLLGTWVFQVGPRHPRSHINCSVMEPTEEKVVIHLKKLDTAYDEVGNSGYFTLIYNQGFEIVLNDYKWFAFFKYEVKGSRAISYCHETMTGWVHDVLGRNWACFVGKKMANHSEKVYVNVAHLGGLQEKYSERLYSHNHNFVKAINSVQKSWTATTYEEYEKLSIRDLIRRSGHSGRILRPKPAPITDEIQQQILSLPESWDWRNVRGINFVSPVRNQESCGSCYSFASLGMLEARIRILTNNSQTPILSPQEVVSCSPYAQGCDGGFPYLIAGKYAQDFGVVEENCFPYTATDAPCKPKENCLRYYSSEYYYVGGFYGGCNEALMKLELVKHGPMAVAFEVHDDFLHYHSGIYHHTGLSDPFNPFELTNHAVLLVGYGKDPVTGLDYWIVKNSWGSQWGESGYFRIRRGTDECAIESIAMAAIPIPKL
Experimental: (§1) Thirty 4-week-old male Sprague-Dawley rats (weighing 120–130 g) were randomly divided into 6 groups (5 rats per group) after 1 week of adaptive feeding, namely the normal group, model group, low-dose experimental group (15 mg/kg), medium-dose experimental group (30 mg/kg), high-dose experimental group (60 mg/kg), and positive control group (30 mg/kg). Starting from Day 0 of the experiment, rats in the administration groups and model group were injected intradermally with 0.1 mL of CFA into the left hind paw to induce AIA, while rats in the normal group were injected intradermally with an equal volume (0.1 mL) of normal saline as a control. After 13 consecutive days of feeding, rats treated with CFA successfully developed typical AIA symptoms. […] During the experiment, the body weight, mental state, activity ability, hair color changes, and paw appearance changes of the rats were observed and recorded daily. In addition, on Day 0 of the experiment (baseline period), the basic paw volume of all rats was accurately measured using a plethysmometer, which served as a reference standard for subsequent evaluation of inflammation severity. From Day 13 to Day 28 of the experiment, the paw volume of the rats was measured repeatedly every 3 days. The degree of paw swelling was quantified by calculating the change in paw volume relative to the baseline. […] The cytokine levels in serum were measured. […]

AIA model = experiment: Adjuvant-induced arthritis (AIA) model, disease severity; assay type: in vivo, Sprague-Dawley rats; conditions: rat AIA
Experimental: Thirty 4-week-old male Sprague-Dawley rats (weighing 120–130 g) were randomly divided into 6 groups (5 rats per group) after 1 week of adaptive feeding, namely the normal group, model group, low-dose experimental group (15 mg/kg), medium-dose experimental group (30 mg/kg), high-dose experimental group (60 mg/kg), and positive control group (30 mg/kg). Starting from Day 0 of the experiment, rats in the administration groups and model group were injected intradermally with 0.1 mL of CFA into the left hind paw to induce AIA, while rats in the normal group were injected intradermally with an equal volume (0.1 mL) of normal saline as a control. After 13 consecutive days of feeding, rats treated with CFA successfully developed typical AIA symptoms. […] During the experiment, the body weight, mental state, activity ability, hair color changes, and paw appearance changes of the rats were observed and recorded daily. In addition, on Day 0 of the experiment (baseline period), the basic paw volume of all rats was accurately measured using a plethysmometer, which served as a reference standard for subsequent evaluation of inflammation severity. From Day 13 to Day 28 of the experiment, the paw volume of the rats was measured repeatedly every 3 days. The degree of paw swelling was quantified by calculating the change in paw volume relative to the baseline. Meanwhile, the arthritis index score was calculated based on the range of paw redness and swelling, the severity of swelling, and the degree of limb movement limitation, so as to comprehensively evaluate the inflammatory state. On Day 28 of the experiment (the end of the administration cycle), blood samples were collected via abdominal aortic puncture. The blood samples were centrifuged at 3000 rpm for 20 min, and the upper serum was collected and stored at −20 °C for subsequent detection. The rats were then sacrificed, and their ankle joint tissues were harvested for subsequent pathological section observation and analysis. The cytokine levels in serum were measured. The activity detection of CTSC and NSPs was carried out according to the above methods.

CTSC [3] = biological target: T2, CTSC (Mus musculus, UniProt P97821); experiment: CTSC activity in blood and bone marrow of mice; assay type: in vivo, C57BL/6 mice; conditions: 30 mg/kg daily gavage, 7 days
T2 construct: from tissue; host or cells: mouse blood and bone marrow lysates
T2 sequence (P97821 25-462): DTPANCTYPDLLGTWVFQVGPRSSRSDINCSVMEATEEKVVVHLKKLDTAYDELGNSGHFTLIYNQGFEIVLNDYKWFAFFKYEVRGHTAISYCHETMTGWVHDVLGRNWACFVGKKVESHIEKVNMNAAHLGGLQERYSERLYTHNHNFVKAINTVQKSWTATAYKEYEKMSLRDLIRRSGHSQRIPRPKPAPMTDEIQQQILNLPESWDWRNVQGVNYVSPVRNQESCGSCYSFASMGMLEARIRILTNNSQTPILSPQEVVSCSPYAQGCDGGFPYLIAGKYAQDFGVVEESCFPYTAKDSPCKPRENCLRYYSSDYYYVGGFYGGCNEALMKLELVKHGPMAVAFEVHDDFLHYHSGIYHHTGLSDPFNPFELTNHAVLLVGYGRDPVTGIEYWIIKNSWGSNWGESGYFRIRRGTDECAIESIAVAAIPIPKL
Experimental: A total of 25 C57BL/6 mice (6–8 weeks old, weighing approximately 20 g, with equal numbers of males and females) were randomly divided into five groups. Mice in the compound-treated groups were orally administered the compound once daily at doses of 0.3, 3, and 30 mg/kg for 7 consecutive days. […] Mice in the normal group were given an equal volume of normal saline at the same time points. The body weight, death rate, and behavior were observed and recorded daily for one week. After 7 days, bone marrow and blood samples were collected from the mice and lysed using 8% Triton X-100 buffer. The lysates were stored at −20 °C until testing. The activity assays for CTSC and NSPs were performed as described above. The mice were anesthetized and the tissues were taken for H&E staining.

Cat G [4] = experiment: AIA model, serum Cat G activity; assay type: in vivo, Sprague-Dawley rats; conditions: rat AIA, high dose 60 mg/kg gavage, 15 days
Experimental: as §1

Cat G [5] = experiment: NSPs activity in U937 cells after 5 days of treatment, Cat G; assay type: cell-based, human; conditions: U937, 10 μM
Experimental: (§2) U937 cells in the logarithmic growth phase were collected and equally divided into six portions. Four of these portions were treated with DMSO solutions of the test compound at varying concentrations to achieve final concentrations of 1.25, 2.5, 5, and 10 μM, respectively. An equal volume of DMSO was added to one portion as a blank control, while another portion treated with a DMSO solution of AZD7986 served as a positive control. The cells were cultured under standard U937 conditions for 5 consecutive days, with daily medium changes and fresh compound treatments administered using the same protocol. Following 5 days of treatment, cells were harvested, washed twice thoroughly with phosphate-buffered saline, and lysed in phosphate-buffered saline containing 1% Triton X-100. The lysates were centrifuged to collect the supernatant, and protein concentrations were determined as previously described to ensure equal total protein loading across all samples. The prepared samples were stored at −20 °C until further analysis. Different assay buffers were prepared for diluting samples and measuring the activities of specific NSPs: a buffer containing 50 mM Tris and 750 mM NaCl (pH 7.4) was used for NE and PR3; a buffer containing 50 mM Tris, 750 mM NaCl, 5 mM EDTA (pH 7.4) was used for Cat G; and a buffer containing 25 mM MES, 50 mM NaCl, 5 mM DTT (pH 6.0) was used for CTSC. […]

CTSC [6] = biological target: CTSC (Homo sapiens, UniProt P53634); experiment: CTSC activity in U937 cells after 5 days of treatment; assay type: cell-based; design: endogenous in cells; host or cells: U937; conditions: U937, 5 days, marrubiin and AZD7986 at the same concentration
Chain of CTSC (Homo sapiens, UniProt P53634) (P53634 25-463): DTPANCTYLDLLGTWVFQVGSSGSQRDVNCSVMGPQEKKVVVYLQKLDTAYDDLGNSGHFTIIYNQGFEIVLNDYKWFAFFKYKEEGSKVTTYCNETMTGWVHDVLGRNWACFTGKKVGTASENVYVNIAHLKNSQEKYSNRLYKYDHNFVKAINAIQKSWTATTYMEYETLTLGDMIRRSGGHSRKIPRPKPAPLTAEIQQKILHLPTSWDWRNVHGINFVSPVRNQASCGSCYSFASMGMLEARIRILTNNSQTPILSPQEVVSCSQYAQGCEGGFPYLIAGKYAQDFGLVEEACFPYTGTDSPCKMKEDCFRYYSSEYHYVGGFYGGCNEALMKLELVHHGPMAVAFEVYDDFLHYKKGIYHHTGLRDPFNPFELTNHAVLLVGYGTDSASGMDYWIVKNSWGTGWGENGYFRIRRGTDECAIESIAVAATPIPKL
Experimental: as §2

Dipeptidyl Peptidase 4 = Dipeptidyl Peptidase 4 (Homo sapiens, UniProt P27487); experiment: Recombinant dipeptidyl peptidases isolated enzyme assay, DPP4; assay type: biochemical; conditions: read-out: Dipeptidyl Peptidase 4 Enz (IC50: μM)
Chain of Dipeptidyl Peptidase 4 (P27487 whole entry, species assumed): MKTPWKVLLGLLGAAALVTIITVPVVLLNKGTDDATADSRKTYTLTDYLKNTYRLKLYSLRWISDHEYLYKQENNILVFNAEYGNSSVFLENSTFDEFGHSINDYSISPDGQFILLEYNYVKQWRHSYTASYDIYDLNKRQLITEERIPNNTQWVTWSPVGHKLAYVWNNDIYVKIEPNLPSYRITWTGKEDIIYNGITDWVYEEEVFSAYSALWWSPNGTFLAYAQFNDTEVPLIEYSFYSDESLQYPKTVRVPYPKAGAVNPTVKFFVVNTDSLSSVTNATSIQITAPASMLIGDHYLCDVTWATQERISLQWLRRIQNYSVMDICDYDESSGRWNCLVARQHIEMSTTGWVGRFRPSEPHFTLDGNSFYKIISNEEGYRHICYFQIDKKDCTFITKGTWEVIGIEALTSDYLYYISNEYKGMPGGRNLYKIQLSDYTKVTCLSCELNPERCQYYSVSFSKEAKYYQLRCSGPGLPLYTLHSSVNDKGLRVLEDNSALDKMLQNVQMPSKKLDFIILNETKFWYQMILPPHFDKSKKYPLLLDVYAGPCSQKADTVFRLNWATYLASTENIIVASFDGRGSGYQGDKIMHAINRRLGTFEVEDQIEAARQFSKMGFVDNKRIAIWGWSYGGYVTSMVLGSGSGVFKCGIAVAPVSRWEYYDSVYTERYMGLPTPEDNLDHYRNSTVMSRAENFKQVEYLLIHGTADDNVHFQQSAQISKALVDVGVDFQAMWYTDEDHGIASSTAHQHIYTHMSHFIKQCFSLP
From the text: Table 3 Inhibitory effects of marrubiin on dipeptidyl peptidase. | column: Dipeptidyl Peptidase 4 Enz (IC50: μM)

Structure (SMILES): C[C@@H]1C[C@H]2OC(=O)[C@@]3(C)CCC[C@@](C)([C@@H]23)[C@@]1(O)CCc1ccoc1 [Marrubiin, marrubiin]
- relative levels of TNF-α, IL-6, IL-1β, MCP-1, CXCL2 [1]: reduced to varying degrees
- serum CTSC activity, % of control group (CTSC [2]): approximately 58%
- clinical score vs AIA model group (AIA model; 60 mg/kg gavage, from day 16 onwards): significantly lower than those of AIA model group
- body weight recovery (AIA model; 60 mg/kg, from day 16 onwards): most significant weight recovery effects
- histopathology of ankle joints (H&E, Safranin O/Fast Green) (AIA model; different doses (15, 30, 60 mg/kg)): reduced the histopathological statement
- volume and thickness of inflamed paws (AIA model; different doses (15, 30, 60 mg/kg), days 16 to 28): continuous reduction in volume and a gradual decrease in thickness
- remaining activity rate of CTSC (CTSC [3]; blood): ~25.5%
- remaining activity rate of CTSC (CTSC [3]; bone marrow): approximately 15.5%
- serum Cat G activity, % of control group (Cat G [4]): ~64%
- Cat G activity, % of DMSO group (Cat G [5]): 16.9%
- residual CTSC activity (CTSC [6]): less than 8%
- IC50 (Dipeptidyl Peptidase 4): > 10 µM
